# What was measured:
# [1] = system: Lucilia cuprina larvae, laboratory susceptible strain (LS); assay: Blowfly larvae pupation bioassay, laboratory strain, diazinon; type: in vivo
# Method: Inhibitor efficacy was determined by treating larvae with diazinon over a range of concentrations, in the presence or absence of the compounds at constant concentrations, and comparing pupation rates.
# Two strains of L. cuprina were used: 1) a laboratory reference drug-susceptible strain, LS, derived from collections in the Australian Capital Territory over 40 years ago, with no history of exposure to insecticides; and 2) a field-collected strain, Tara, resistant to diazinon and diflubenzuron (Levot, G. W. & Sales, N. New high level resistance to diflubenzuron detected in the Australian sheep blowfly, Lucilia cuprina (Wiedemann) (Diptera: Calliphoridae). Gen. Appl. Entomol. 31, 43-46 (2002)). The LcαE7 gene was sequenced in each of the strains. Briefly, genomic DNA was prepared from 20 adult female flies from each strain using the DNeasy Blood and Tissue kit (Qiagen). PCR was performed with primers specific to the LcαE7 gene, and the product was cloned into a pGEM-T EASY vector (Promega). Eight clones of the susceptible strain and 10 clones of the resistant strain were sequenced using M13 forward and reverse primers.
# Each experiment utilized 50 larvae at each diazinon/malathion concentration. Experiments were replicated three times for diazinon, and twice for malathion. The insecticidal effects were defined by measuring the pupation rate. […]
# [2] = system: panel of 26 human serine or threonine proteases; assay: Protease selectivity panel, summary over the panel; type: biochemical; settings: 100 μM compound
# Method: Test compounds were dissolved in 100% DMSO to make 10 mM stock. Final compound concentration in assay is […]. Compounds were tested in duplicate wells at single concentration and the final concentration of DMSO in all assays was kept at 1%. Five reference compounds, AEBSF, Carfilzomib, Granzyme B Inhibitor II, Dec-RVKR-CMK, and Teneligliptin hydrobromide, were tested in an identical manner with 8 concentration points at 5× dilutions.
# [3] = molecular target: Lucilia cuprina αE7 carboxylesterase (LcαE7) variant Gly137Asp (Lucilia cuprina, UniProt Q25252, G137D); assay: Inhibition of Gly137Asp LcαE7, 4-nitrophenol butyrate hydrolysis; type: biochemical
# Lucilia cuprina αE7 carboxylesterase (LcαE7) variant Gly137Asp, sequence (Q25252 entry or part of it G137D): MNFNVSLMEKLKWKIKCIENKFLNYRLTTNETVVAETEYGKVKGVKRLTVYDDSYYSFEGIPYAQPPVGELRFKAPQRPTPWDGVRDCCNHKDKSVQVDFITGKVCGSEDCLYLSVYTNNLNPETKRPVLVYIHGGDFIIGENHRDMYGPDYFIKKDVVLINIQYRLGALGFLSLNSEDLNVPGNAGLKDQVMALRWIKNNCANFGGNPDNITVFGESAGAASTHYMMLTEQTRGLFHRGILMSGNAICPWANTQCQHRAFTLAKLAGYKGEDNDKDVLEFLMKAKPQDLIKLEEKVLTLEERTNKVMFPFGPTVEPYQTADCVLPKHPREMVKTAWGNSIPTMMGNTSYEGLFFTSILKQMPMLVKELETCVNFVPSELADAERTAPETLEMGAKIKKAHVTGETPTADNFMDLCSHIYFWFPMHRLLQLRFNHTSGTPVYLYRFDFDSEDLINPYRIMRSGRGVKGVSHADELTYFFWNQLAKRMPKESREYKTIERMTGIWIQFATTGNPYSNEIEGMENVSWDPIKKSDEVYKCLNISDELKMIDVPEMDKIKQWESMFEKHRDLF
# Description: The term “carboxyethylesterase” (CBE), refers to insect carboxylesterases from the alpha and beta and non-microsomal gene clusters, as defined in Oakeshott, Claudianos, Campbell, Newcomb and Russell, “Biochemical Genetic and Genomics of Insect Esterases”, pp 309-381, Chapter 10, Volume 5, 2005, Eds. Gilbert, Iatrou, Gill, published—Elsevier which is incorporated herein by reference. The αE7 CBE is an example of an alpha esterase, and is found in the sheep blowfly, Lucilia cuprina, with homologous genes being present in other insect pests. […]
# His6-tagged proteins were expressed in BL21(DE3) E. coli (Invitrogen) at 26° C. for 18 hours. […] Protein concentration was determined by measuring the absorbance at 280 nm with an extinction coefficient calculated using the Protparam online server (Gasteiger, E. et al. Protein identification and analysis tools on the ExPASy server. Proteomics Protoc. Handb. 571-607 (2005). doi:10.1385/1-59259-890-0:571).
# Inhibition of wild-type αE7 and the Gly137Asp αE7 variant was determined by a competition assay between the native-substrate analogue 4-nitrophenol butyrate (Sigma) and the boronic acid compounds. Initially, the Michalis constant (KM) with 4-nitrophenol butyrate was measured for both enzymes to determine an appropriate concentration of substrate for use in the competition assays. […]
# [4] = Observation of the spray mixtures (flocculation); type: physicochemical; settings: alone and in mixture with CPE in all doses
# [5] = system: panel of CBEs from various pests; assay: Panel of insect CBEs as a whole; type: biochemical
# Method: Assays were performed with 4-NPB as the substrate.
smiles,measurement,setting,value
OB(O)c1cc(Br)cc(N2CCOCC2)c1 [Compound 3.1],reduction of diazinon EC50 compared to diazinon only control,[1],5.7 fold
OB(O)c1cc(Br)cc(N2CCCC2)c1 [Compound 3],inhibition across the panel of 26 human proteases (in words),[2],only 3 of the 26 proteases were inhibited by more than 50%
same,inhibition of Gly137Asp LcαE7,[3],poor inhibitor of Gly137Asp LcαE7
"OB(O)c1ccc(OCc2ccccc2F)c(Cl)c1 [Compound 5, 3-Chloro-4(2′-fluorobenzyloxy) phenylboronic acid]",flocculation,[4],Flocculation is observed
same,inhibition spectrum across CBEs,[5],efficiently inhibiting six different CBEs

# — patent US20190327974A1, “SYNERGISTS FOR IMPROVED PESTICIDES” (priority 2017, published 2019)
